Results: PubChem BioAssay AID2060509 (Molecular Pharmacology Branch, DTP, NCI, 2025)

System: 485176-168-R4-J1-PDC spheroids with HUVEC/MSC, viability
Assay: Anticancer human tumor 485176-168-R4-J1-PDC patient-derived pancreatic adenocarcinoma cell line growth inhibition [GQUAD]
Conditions: for IC50: curve of first compound; for viability, T/C: stronger effect = lower value
Outline: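 Multi-cell-type spheroids of tumor cells with HUVEC and mesenchymal stem cells, treated with drug combinations. Concentrations descend in half-log steps from near clinical Cmax, or from 10 microM where Cmax is unknown; viability read-out.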

[1] = second compound 0.0316 µM, first compound 0.0316 µM
[2] = second compound 0.0316 µM, first compound 0.1 µM
[3] = second compound 0.0316 µM, first compound 0.316 µM
[4] = second compound 0.0316 µM, first compound 1 µM
[5] = second compound 0.0316 µM, first compound 3.16 µM
[6] = second compound 0.0316 µM, first compound 10 µM
[7] = second compound 0.1 µM, first compound 0.0316 µM
[8] = second compound 0.1 µM, first compound 0.1 µM
[9] = second compound 0.1 µM, first compound 0.316 µM
[10] = second compound 0.1 µM, first compound 1 µM
[11] = second compound 0.1 µM, first compound 3.16 µM
[12] = second compound 0.1 µM, first compound 10 µM
[13] = second compound 0.316 µM, first compound 0.0316 µM
[14] = second compound 0.316 µM, first compound 0.1 µM
[15] = second compound 0.316 µM, first compound 0.316 µM
[16] = second compound 0.316 µM, first compound 1 µM
[17] = second compound 0.316 µM, first compound 3.16 µM
[18] = second compound 0.316 µM, first compound 10 µM
[19] = second compound 1 µM, first compound 0.0316 µM
[20] = second compound 1 µM, first compound 0.1 µM
[21] = second compound 1 µM, first compound 0.316 µM
[22] = second compound 1 µM, first compound 1 µM
[23] = second compound 1 µM, first compound 3.16 µM
[24] = second compound 1 µM, first compound 10 µM
[25] = second compound 3.16 µM, first compound 0.0316 µM
[26] = second compound 3.16 µM, first compound 0.1 µM
[27] = second compound 3.16 µM, first compound 0.316 µM
[28] = second compound 3.16 µM, first compound 1 µM
[29] = second compound 3.16 µM, first compound 3.16 µM
[30] = second compound 3.16 µM, first compound 10 µM
[31] = second compound 10 µM, first compound 0.0316 µM
[32] = second compound 10 µM, first compound 0.1 µM
[33] = second compound 10 µM, first compound 0.316 µM
[34] = second compound 10 µM, first compound 1 µM
[35] = second compound 10 µM, first compound 3.16 µM
[36] = second compound 10 µM, first compound 10 µM
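Also: spheroids exposed to compounds for seven days before readout.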
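For viability, T/C in this document: percent viability relative to DMSO vehicle control wells as 100%.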

Compound `CCCS(=O)(=O)Nc1ccc(F)c(C(=O)c2c[nH]c3ncc(-c4ccc(Cl)cc4)cc23)c1F` + CN(C)c1ccc(Nc2c3ccc(NC(=O)CCN4CCCC4)cc3nc3cc(NC(=O)CCN4CCCC4)ccc23)cc1 has an IC50 (second compound 0.0316 µM) greater than 10 µM, an IC50 (second compound 0.1 µM) greater than 10 µM and an IC50 (second compound 0.316 µM) greater than 10 µM. The IC50 (second compound 1 µM) was greater than 10 µM, the IC50 (second compound 3.16 µM) was greater than 10 µM and the IC50 (second compound 10 µM) was 6.5 µM. For the same compound, the viability, T/C [1] was 87.4%, the viability, T/C [2] was 81.9% and the viability, T/C [3] was 91.6%. It also gave a viability, T/C [4] of 86.4%, a viability, T/C [5] of 86.3% and a viability, T/C [6] of 70.1%. For the same compound, the viability, T/C [7] was 100%, the viability, T/C [8] was 99% and the viability, T/C [9] was 83.2%. It also gave a viability, T/C [10] of 73.6%, a viability, T/C [11] of 94.3% and a viability, T/C [12] of 60%. It also gave a viability, T/C [13] of 97.5%, a viability, T/C [14] of 95% and a viability, T/C [15] of 91.1%. It also gave a viability, T/C [16] of 77.2%, a viability, T/C [17] of 90.8% and a viability, T/C [18] of 63.7%. For the same compound, the viability, T/C [19] was 76.3%, the viability, T/C [20] was 86.8% and the viability, T/C [21] was 105%. For the same compound, the viability, T/C [22] was 94.8%, the viability, T/C [23] was 82.5% and the viability, T/C [24] was 65.3%. It also gave a viability, T/C [25] of 91.8%, a viability, T/C [26] of 87.6% and a viability, T/C [27] of 78.8%. For the same compound, the viability, T/C [28] was 81.3%, the viability, T/C [29] was 81.2% and the viability, T/C [30] was 51.3%. For the same compound, the viability, T/C [31] was 76.6%, the viability, T/C [32] was 83.7% and the viability, T/C [33] was 65.4%. For the same compound, the viability, T/C [34] was 70.6%, the viability, T/C [35] was 63.3% and the viability, T/C [36] was 42.7%.
In the case of `COc1ncnc(C2CC2)c1-c1ncc2cnn(Cc3ccc(-c4nc(C(F)(F)F)cn4C(C)C)cc3)c2n1` + Cc1[nH]c2ccc(F)cc2c1-c1nc2c3cccnc3c3ncccc3c2[nH]1, the IC50 (second compound 0.0316 µM) is reported as greater than 10 µM, the IC50 (second compound 0.1 µM) is reported as greater than 10 µM and the IC50 (second compound 0.316 µM) is reported as greater than 10 µM. It also gave an IC50 (second compound 1 µM) greater than 10 µM, an IC50 (second compound 3.16 µM) greater than 10 µM and an IC50 (second compound 10 µM) greater than 10 µM. It also gave a viability, T/C [1] of 118%, a viability, T/C [2] of 81.8% and a viability, T/C [3] of 101%. For the same compound, the viability, T/C [4] was 105%, the viability, T/C [5] was 104% and the viability, T/C [6] was 94.2%. The viability, T/C [7] was 101%, the viability, T/C [8] was 106% and the viability, T/C [9] was 102%. It also gave a viability, T/C [10] of 102%, a viability, T/C [11] of 102% and a viability, T/C [12] of 110%. It also gave a viability, T/C [13] of 91%, a viability, T/C [14] of 85.4% and a viability, T/C [15] of 107%. It also gave a viability, T/C [16] of 92.4%, a viability, T/C [17] of 110% and a viability, T/C [18] of 110%. The viability, T/C [19] was 84.9%, the viability, T/C [20] was 106% and the viability, T/C [21] was 118%. The viability, T/C [22] was 108%, the viability, T/C [23] was 115% and the viability, T/C [24] was 97%. For the same compound, the viability, T/C [25] was 88.4%, the viability, T/C [26] was 90.7% and the viability, T/C [27] was 104%. It also gave a viability, T/C [28] of 93.8%, a viability, T/C [29] of 93% and a viability, T/C [30] of 80.5%. The viability, T/C [31] was 90.3%, the viability, T/C [32] was 97% and the viability, T/C [33] was 83.5%. It also gave a viability, T/C [34] of 90.9%, a viability, T/C [35] of 96.9% and a viability, T/C [36] of 84.6%.
`C=CCn1c(=O)c2cnc(Nc3ccc(N4CCN(C)CC4)cc3)nc2n1-c1cccc(C(C)(C)O)n1` + Cc1cnc(CNC(=O)c2c(=O)c3ccc(N4CCCN(C)CC4)nc3n3c2sc2ccccc23)cn1 was tested, and the IC50 (second compound 0.0316 µM) was 0.233 µM, the IC50 (second compound 0.1 µM) was 0.165 µM and the IC50 (second compound 0.316 µM) was 0.123 µM. For the same compound, the IC50 (second compound 1 µM) was 0.0365 µM, the IC50 (second compound 3.16 µM) was less than 0.0316 µM and the IC50 (second compound 10 µM) was less than 0.0316 µM. The viability, T/C [1] was 81.7%, the viability, T/C [2] was 64.8% and the viability, T/C [3] was 47.2%. The viability, T/C [4] was 11.5%, the viability, T/C [5] was 7.79% and the viability, T/C [6] was 3.94%. It also gave a viability, T/C [7] of 69.3%, a viability, T/C [8] of 70.4% and a viability, T/C [9] of 24.1%. The viability, T/C [10] was 10.6%, the viability, T/C [11] was 6.45% and the viability, T/C [12] was 3.77%. It also gave a viability, T/C [13] of 64%, a viability, T/C [14] of 55.9% and a viability, T/C [15] of 25%. For the same compound, the viability, T/C [16] was 9.59%, the viability, T/C [17] was 6.42% and the viability, T/C [18] was 3.31%. The viability, T/C [19] was 52%, the viability, T/C [20] was 36.4% and the viability, T/C [21] was 22.1%. For the same compound, the viability, T/C [22] was 10.2%, the viability, T/C [23] was 5.94% and the viability, T/C [24] was 4.18%. It also gave a viability, T/C [25] of 47.6%, a viability, T/C [26] of 40.1% and a viability, T/C [27] of 18.2%. For the same compound, the viability, T/C [28] was 9.87%, the viability, T/C [29] was 4.56% and the viability, T/C [30] was 5.42%. For the same compound, the viability, T/C [31] was 34.4%, the viability, T/C [32] was 37.5% and the viability, T/C [33] was 24.6%. For the same compound, the viability, T/C [34] was 10.6%, the viability, T/C [35] was 0.49% and the viability, T/C [36] was 0.25%.
